“And” between values parts separate entries of the source, which are not always exact repeats. Identical values can stand only once.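 Following 48 hours of exposure in 96-well plates, responses at five concentrations were used to interpolate endpoints linearly. TGI marks complete inhibition of growth.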 Where a SMILES comes first, the peptide text is derived from it.
Tests used:
Assay in all cases: NCI-60 cell line screen, 48 h
HS 578T breast = test system: HS 578T breast
KM12 colon = test system: KM12 colon
SW-620 colon = test system: SW-620 colon

Compound	TGI (HS 578T breast)	TGI (KM12 colon)	TGI (SW-620 colon)
O=C1CSC(c2ccc(Cl)cc2)N1c1ccc(-c2ccc(-n3c(-c4ccccc4)nc4ccccc4c3=O)cc2)cc1 (stereo not given)	> 100 µM	> 100 µM	> 100 µM
CCN1C(=O)c2ccccc2C1(O)c1ccc(Cl)cc1 (stereo not given)	> 100 µM	> 100 µM	> 100 µM
CC#Cc1cc2c(cc1O)CC[C@@H]1[C@@H]2CC[C@]2(C)[C@@H](O)CC[C@@H]12	29.5 µM	14.1 µM	11.1 µM
NNc1ccccc1Cl	> 100 µM	> 100 µM	> 100 µM
CC(C)[Si](OC1=C(C(=O)N(C)c2ccccc2Cl)CCCC1)(C(C)C)C(C)C	30.7 µM	27.5 µM	33.3 µM
CN(C)c1nc(=NCc2cccs2)ss1	> 10 µM	> 10 µM	> 10 µM
COc1ccc2oc(=O)c(CC=C(C)C)c(O)c2c1C	> 100 µM	> 100 µM	> 100 µM
N#Cc1c(C#N)c(-c2ccco2)n(-c2ccccc2)c1N		> 100 µM	> 100 µM
CC(C)(C)CC(C)(C)N=C(N)NO	> 100 µM	> 100 µM	> 100 µM
Cc1cc(C)n(-c2nc3ccccc3c(=O)n2-c2ccccc2)n1			> 100 µM
CCOC(CI)O[C@@H]1C=C[C@H](OC(C)=O)C1 (stereo not given in full)		> 100 µM	> 100 µM
CSCCCNC(=O)c1csc(-c2csc(CCN)n2)n1	> 100 µM	> 100 µM	> 100 µM
COC(=O)[C@@H]1C2OC(C)(C)OC2CN1C(=O)OCc1ccccc1 (stereo not given in full)	> 100 µM	> 100 µM	> 100 µM
COc1ccc(CC2c3cc(OC)c(OC)c(OC)c3CC[N+]2(C)C)cc1Oc1ccc(CC2c3cc4c(c(OC)c3CCN2C)OCO4)cc1 (stereo not given)	> 100 µM	> 100 µM	> 100 µM
CC(C)(C)OC(=O)NC(Cc1ccc(OCc2ccccc2)cn1)C(=O)NCc1ccccc1 (stereo not given)	> 100 µM	97.8 µM	> 100 µM
CCCNC(C#N)c1ccc(OCCCCCCCCCCOc2ccc(C(C#N)NCCC)cc2)cc1 (stereo not given)	> 100 µM	> 100 µM	> 100 µM
CC1=C(C#N)C2C(=C(N)Oc3ccccc32)C(N)=N1 (stereo not given)	72.1 µM	71.2 µM	> 100 µM
O=C(Cc1ccccc1)NNc1nc(NNC(=O)c2ccncc2)nc(Nc2ccccc2)n1	> 10 µM	> 10 µM	
COC(=O)[C@]12CCC(C)(C)C[C@H]1C1=CC[C@@H]3[C@@]4(C)CC[C@H](OC5OC(CO)C(O)C(O)C5OC5OC(CO)C(O)C(O)C5O)C(C)(C)[C@@H]4CC[C@@]3(C)[C@]1(C)CC2 (stereo not given in full)	56.8 µM	26.9 µM	27.7 µM
O=C(NCCNCCNCCNC(=O)c1cc(-c2ccccc2)nc2ccccc12)c1cc(-c2ccccc2)nc2ccccc12	4.96 µM	5.54 µM	3.31 µM

Compound	TGI (HS 578T breast)	TGI (KM12 colon)	TGI (SW-620 colon)
O=c1cc(-c2ccccc2)oc2ccc(-c3ccc4oc(-c5ccccc5)cc(=O)c4c3)cc12	37.4 µM		> 100 µM
COc1ccc(N2C(=O)c3cccnc3S2(=O)=O)cc1		> 100 µM	> 100 µM
O=C(O)Cc1cccc2c1OC(c1ccccc1)C(C(=O)c1ccccc1)C2=O (stereo not given)	> 100 µM	> 100 µM	> 100 µM
COc1cc(Br)cc2nc(-c3cccs3)oc12	> 68 µM	> 100 µM	> 100 µM
CCO/C=N/C1=C(C#N)C(c2ccc(Cl)cc2)c2c(-c3ccccc3)nn(-c3ccccc3)c2O1 (stereo not given)	> 28.1 µM	18.7 µM	> 66.5 µM
CCN(CC)CCn1c2cc3c(cc2c(=O)c2cccnc21)OCO3	> 10 µM	> 10 µM	> 10 µM
CC(C)C1SCc2nc3ccccc3n21 (stereo not given)	> 100 µM	45.5 µM	> 100 µM
COc1ccc(C2=Nn3c(nc4sc(-c5ccccc5)cc4c3=O)SC2)cc1	> 100 µM	> 100 µM	> 100 µM
CCCN(CCC)c1cc2c(cc1F)c(=O)c(C(=O)O)cn2-c1ccc(N2CCN(C)CC2)cn1	35.1 µM	30.3 µM	48.2 µM
COc1cc2nc(-c3ccccc3F)[nH]c(=O)c2cc1OC	> 100 µM	> 100 µM	
CC1(c2nc3ccccc3[nH]2)CCC(C(N)=O)C(C)(C)O1 (stereo not given)	> 100 µM	> 100 µM	> 100 µM
COc1ccc(OC)c(-c2nc3ccccc3c(=O)[nH]2)c1	> 100 µM	> 100 µM	> 100 µM
Cc1nc(-c2cc3c(ccc4ccccc43)oc2=O)cc2c1c(=O)oc1ccc3ccccc3c12		> 100 µM	> 100 µM
Cc1ccc(CC2(OCCN(C)C)CCC(C(C)(C)C)CC2)cc1 (stereo not given)	28.4 µM and 21.2 µM	13 µM and 10.4 µM	5.84 µM and 8 µM
COc1ccc2c(c1)CC[C@@H]1[C@@H]2CC[C@]2(C)C(=O)/C(=C/c3ccncc3)C[C@@H]12		73.9 µM	86 µM
O=C1c2cscc2C(=O)C1(O)O	> 100 µM	> 100 µM	42.1 µM
CC(=O)c1nc2ccccc2n1CC(=O)c1ccc(Cl)cc1	> 100 µM	> 100 µM	44 µM
COc1ccccc1N1C(=O)CS(=O)(=O)C1c1cccc(Oc2ccccc2)c1 (stereo not given)	48.2 µM	61.7 µM	82.8 µM
COCOCC1CCCN1CN1CCC[C@H]1COCOC (stereo not given in full)	> 100 µM	> 100 µM	> 100 µM
NC1=CN(Cc2ccccc2)C2=N/C(=C\c3ccccc3)C(=O)N12	> 100 µM	> 100 µM	> 100 µM

Compound	TGI (HS 578T breast)	TGI (KM12 colon)	TGI (SW-620 colon)
C[C@H]1CCCCC[C@@H]2CC(=O)CC2C(=O)CCC(=O)O1 (stereo not given in full)	> 100 µM	> 100 µM	> 100 µM
CC[C@H](C)C1=C(O)[N@+]2([O-])Oc3ccc(-c4c(O)c(O)c(-c5ccc(OC(C)=O)cc5)c(OC(C)=O)c4OC(C)=O)cc3O[C@]2([C@@H](C)CC)C(=O)N1O	> 50 µM	> 50 µM	23.6 µM
O=C1/C(=C/c2ccccc2)N=C(c2ccccc2)N1C1Nc2cc3c(cc2S1)NC(N1C(=O)/C(=C/c2ccccc2)N=C1c1ccccc1)S3 (stereo not given)		55.6 µM	78.5 µM
COc1ccc2c(c1)CCCN1Cc3cc(OC)c(OC)cc3CC21 (stereo not given)	> 100 µM	> 100 µM	> 100 µM
Cn1c(=O)c2c(nc(N)n2C2OC(CO)C(O)C2O)n(C)c1=O (stereo not given)	> 100 µM	> 100 µM	> 100 µM
COc1ccc2oc(=O)c3c(c2c1C)OC(C)(C)C=C3	> 100 µM	> 100 µM	> 100 µM
Cc1cc(N(CCCCl)CCCCl)ccc1C=Nc1cccc(Cl)c1	36.2 µM	26.3 µM	25.4 µM
Nc1nc(Cl)cc(NCC2(CO)CCC(O)C2)n1 (stereo not given)	> 100 µM	> 100 µM	> 100 µM
O=C1C[C@@H](Sc2ccccc2)C2(OCCO2)[C@H]2ON3CCC[C@@H]3[C@@H]12	13.1 µM	18.4 µM	13.5 µM
S=C(N/N=C(/c1ccccc1)c1ccccn1)Nc1ccc(Cl)cc1	> 78.2 µM	13.7 µM	11.1 µM
O=C(Nc1nnc(-c2c(Cl)c(Cl)c(Cl)c(Cl)c2-c2nc3cc(C(=O)c4ccccc4)ccc3[nH]2)o1)c1ccccc1		> 100 µM	> 100 µM
CC(=O)NC(CS)C(=O)NC(CO)C(=O)NC(CO)C(=O)NC(Cc1c[nH]c2ccccc12)C(=O)N1CCCC1C(=O)NC(CO)C(=O)NC(Cc1c[nH]c2ccccc12)C(=O)NC(Cc1c[nH]cn1)C(=O)NC(CO)C(=O)NC(Cc1c[nH]c2ccccc12)C(=O)NCC(=O)NCC(=O)NC(CC(=O)O)C(=O)NC(CCC(N)=O)C(=O)NC(CCCCN)C(=O)NC(Cc1ccccc1)C(=O)NC(CCCNC(=N)N)C(=O)NC(CCCCN)C(N)=O (stereo not given) (Ac-CSSWPSWHSWGGDQKFRK-NH2; configuration not given here)	> 25 µM	> 25 µM	> 25 µM
CC(C)c1c(O[Si](C(C)C)(C(C)C)C(C)C)c2c3c(ccc4c3c1OC4(C)C)C(C)CC2 (stereo not given)	> 100 µM	> 100 µM	> 100 µM
Cc1cc(S(=O)(=O)NC2=NC(c3ccccc3)c3ccccc3N2)c(S)cc1Cl (stereo not given)	> 100 µM	> 100 µM	> 100 µM
O=C1Oc2ccccc2C(=O)/C1=C/N1C(=O)N/C(=C\c2cccc(O)c2)C1=O		> 100 µM	> 100 µM
Nc1ccc2cc3[nH]c4cc(N)ccc4c3nc2c1	2.57 µM	1.7 µM	0.845 µM
O=C(O)c1nc2ccccc2nc1Nc1ccc(F)cc1	> 100 µM	> 100 µM	> 100 µM
COc1c(C)c(C/C=C(\C)CCCCO)c(OC)c(OC)c1OC	> 100 µM	41.5 µM	> 100 µM
COc1ccc(C2CC(=O)CC(c3ccc(OC)cc3)C23C(=O)NC(=S)NC3=O)cc1 (stereo not given)		> 100 µM	> 100 µM
NC1CC(=O)c2csc(Cl)c21 (stereo not given)	> 100 µM	17.4 µM	

From PubChem BioAssay (NCI)
